In US10323043B2, “Derivatives of macrocyclic N-aryl-tricyclopyrimidine-2-amine polyethers as inhibitors of FTL3 and JAK” (PIERRE FABRE MEDICAMENT, priority 2014, dated 2019):

How the values were obtained:
JAK2 = biological target: T1, JAK2 (Homo sapiens, UniProt O60674); experiment: LanthaScreen TR-FRET binding test, JAK2; conditions: recombinant JAK2 15 nM, kinase tracer 236 150 nM, 25° C., 1 hour; read-out: Inhibition (IC50) of JAK2 enzyme
T1 construct: purchased Life Technologies PV4210
Protocol: (§1) FLT3 (#PV3182), JAK2 (#PV4210) and JAK3 (#PV3855) recombinant enzymes were purchased from Life Technologies. FLT3-ITD (#0778-0000-1) and FLT3^D835Y (#14-610) proteins were purchased from ProQinase and Merck Millipore, respectively. All the tests were carried out in 384-well plates. The principle of these binding tests is based on the LanthaScreen® TR-FRET methodology from Life Technologies.
The reaction mixture (15 μL total volume) contains the following compounds: 15 nM JAK2 or JAK3, 150 nM kinase tracer 236 (Life Technologies, #PV5592) for JAK2 or 3 nM for JAK3 and 6 nM LanthaScreen® anti-GST antibody coupled to a europium chelate (Life Technologies, #PV5594) for both enzymes.
(§2) The compounds are evaluated at 8 different concentrations prepared by making dilutions from a starting 10 mM stock solution in dimethylsulfoxide (DMSO) (Sigma, #D8418). The final DMSO concentration in the test is 1%. The reaction is carried out at 25° C. for 1 hour and detected on the EnVision® reader (Perkin Elmer) according to the recommendations of the supplier, Life Technologies.
(§3) The results are presented (Table 1) as the concentration values of the compound at which 50% of the kinase activity is inhibited, IC50 (μM), generated using the PRISM software (GraphPad).

FLT3-ITD = biological target: T2, FLT3-ITD (Homo sapiens, UniProt P36888); experiment: LanthaScreen TR-FRET binding test, FLT3-ITD; conditions: FLT3-ITD 15 nM, kinase tracer 236 3 nM, 25° C., 1 hour; read-out: Inhibition (IC50) of FLT3-ITD enzyme
T2 construct: FLT3-ITD (#0778-0000-1) and FLT3^D835Y (#14-610) proteins were purchased from ProQinase and Merck Millipore, respectively; fused on or other part: GST tag, inferred from detection with the anti-GST europium antibody
T2 sequence (P36888 1-993): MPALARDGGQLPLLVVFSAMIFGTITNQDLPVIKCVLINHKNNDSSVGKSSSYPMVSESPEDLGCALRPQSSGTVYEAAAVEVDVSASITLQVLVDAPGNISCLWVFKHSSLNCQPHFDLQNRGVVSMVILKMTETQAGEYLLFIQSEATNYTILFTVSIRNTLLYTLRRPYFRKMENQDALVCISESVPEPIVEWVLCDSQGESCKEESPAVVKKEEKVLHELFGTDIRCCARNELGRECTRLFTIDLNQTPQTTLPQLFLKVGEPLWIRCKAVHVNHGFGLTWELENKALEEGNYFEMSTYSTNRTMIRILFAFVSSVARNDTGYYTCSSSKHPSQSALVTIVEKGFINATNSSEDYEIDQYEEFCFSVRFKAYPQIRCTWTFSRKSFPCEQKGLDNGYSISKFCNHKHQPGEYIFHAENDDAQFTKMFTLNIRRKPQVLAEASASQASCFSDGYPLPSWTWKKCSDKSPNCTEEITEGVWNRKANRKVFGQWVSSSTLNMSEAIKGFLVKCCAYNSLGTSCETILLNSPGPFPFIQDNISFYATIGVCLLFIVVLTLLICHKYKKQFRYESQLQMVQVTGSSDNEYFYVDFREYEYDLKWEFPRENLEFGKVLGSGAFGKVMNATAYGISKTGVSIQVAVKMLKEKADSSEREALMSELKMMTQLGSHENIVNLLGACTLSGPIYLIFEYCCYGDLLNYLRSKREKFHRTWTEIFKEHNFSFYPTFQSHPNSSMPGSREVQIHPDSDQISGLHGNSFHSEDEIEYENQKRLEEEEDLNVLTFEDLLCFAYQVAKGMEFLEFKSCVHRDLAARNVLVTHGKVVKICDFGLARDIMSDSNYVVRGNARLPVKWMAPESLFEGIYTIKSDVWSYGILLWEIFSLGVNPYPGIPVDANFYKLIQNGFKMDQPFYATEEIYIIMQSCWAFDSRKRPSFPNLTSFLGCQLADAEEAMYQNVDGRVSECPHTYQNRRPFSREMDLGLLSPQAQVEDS
Protocol: as §1
(§4) The reaction mixture (15 μL total volume) contains the following compounds: 15 nM FLT3, FLT3-ITD or FLT3^D835Y, 3 nM kinase tracer 236 (Life Technologies, #PV5592) and 6 nM LanthaScreen® anti-GST antibody coupled to a europium chelate (Life Technologies, #PV5594) for FLT3-ITD and FLT3^D835Y or 6 nM LanthaScreen® anti-His antibody coupled to a europium chelate (Life Technologies, #PV5596) for FLT3.
as §2, §3

FLT3 = biological target: T3, FLT3 (Homo sapiens, UniProt P36888); experiment: LanthaScreen TR-FRET binding test, FLT3; conditions: recombinant FLT3 15 nM, kinase tracer 236 3 nM, 25° C., 1 hour; read-out: Inhibition (IC50) of FLT3 enzyme
T3 construct: purchased Life Technologies PV3182
T3 sequence (P36888 564-993 limits assumed): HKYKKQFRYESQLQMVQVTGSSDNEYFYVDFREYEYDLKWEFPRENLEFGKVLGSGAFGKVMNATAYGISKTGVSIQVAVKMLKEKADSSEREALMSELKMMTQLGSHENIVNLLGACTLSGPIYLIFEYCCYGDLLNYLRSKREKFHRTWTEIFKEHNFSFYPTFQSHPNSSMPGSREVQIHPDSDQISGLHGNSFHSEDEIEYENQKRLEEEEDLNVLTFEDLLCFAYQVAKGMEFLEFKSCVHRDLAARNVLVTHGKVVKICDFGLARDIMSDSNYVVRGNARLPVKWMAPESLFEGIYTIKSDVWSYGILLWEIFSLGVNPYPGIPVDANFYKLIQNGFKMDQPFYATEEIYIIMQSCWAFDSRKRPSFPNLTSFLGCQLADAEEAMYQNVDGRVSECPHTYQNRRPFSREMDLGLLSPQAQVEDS
Protocol: as §1, §4, §2, §3

T1 sequence (O60674 whole entry): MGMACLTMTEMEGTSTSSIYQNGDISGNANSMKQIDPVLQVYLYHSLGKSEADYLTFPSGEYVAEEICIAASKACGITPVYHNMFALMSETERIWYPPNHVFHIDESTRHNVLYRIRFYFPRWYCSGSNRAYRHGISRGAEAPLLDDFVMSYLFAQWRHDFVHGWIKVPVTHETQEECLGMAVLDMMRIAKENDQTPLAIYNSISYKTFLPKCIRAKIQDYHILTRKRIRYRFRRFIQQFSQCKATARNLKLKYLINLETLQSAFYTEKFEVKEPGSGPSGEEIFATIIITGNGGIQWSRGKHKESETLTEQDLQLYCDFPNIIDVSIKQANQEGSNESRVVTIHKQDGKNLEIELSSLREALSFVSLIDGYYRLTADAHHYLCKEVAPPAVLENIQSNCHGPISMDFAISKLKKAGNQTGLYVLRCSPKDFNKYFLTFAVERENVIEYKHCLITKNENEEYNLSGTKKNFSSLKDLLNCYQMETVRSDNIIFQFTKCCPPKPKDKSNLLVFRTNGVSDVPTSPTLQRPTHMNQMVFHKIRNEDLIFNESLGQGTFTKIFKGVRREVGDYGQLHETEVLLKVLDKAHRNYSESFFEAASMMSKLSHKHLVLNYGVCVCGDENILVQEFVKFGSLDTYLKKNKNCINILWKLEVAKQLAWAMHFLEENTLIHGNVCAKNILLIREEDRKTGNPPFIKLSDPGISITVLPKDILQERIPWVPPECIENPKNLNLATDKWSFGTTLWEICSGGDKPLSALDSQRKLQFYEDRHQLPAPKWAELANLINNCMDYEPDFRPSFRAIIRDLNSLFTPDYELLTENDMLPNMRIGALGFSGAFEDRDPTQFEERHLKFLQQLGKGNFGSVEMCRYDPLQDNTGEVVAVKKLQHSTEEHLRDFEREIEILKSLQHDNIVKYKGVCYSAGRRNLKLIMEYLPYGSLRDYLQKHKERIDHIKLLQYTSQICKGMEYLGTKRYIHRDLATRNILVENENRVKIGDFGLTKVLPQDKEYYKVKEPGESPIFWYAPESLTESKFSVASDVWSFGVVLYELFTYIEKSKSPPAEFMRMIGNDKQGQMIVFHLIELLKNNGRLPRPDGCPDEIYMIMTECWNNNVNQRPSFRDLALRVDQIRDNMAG

Which IC50 (JAK2) does the source give for `CN1CCN(c2ccc3cc2OCCOCCOc2ccc4c(c2)-c2nc(ncc2CC4)N3)CC1` [Compound 3] here?
The IC50 was 17.5 nM.

And the IC50 (FLT3-ITD)?
The IC50 was 0.14 nM.

And the IC50 (FLT3)?
Its IC50 is 2.5 nM.

What does the source list for `c1cc(N2CCNCC2)c2cc1Nc1ncc3c(n1)-c1cc(ccc1CC3)OCCOCCO2` [Compound 5]?
IC50 (JAK2): 13 nM; IC50 (FLT3-ITD): 1.3 nM; IC50 (FLT3): 4.4 nM

With `c1cc(N2CCC(N3CCOCC3)C2)c2cc1Nc1ncc3c(n1)-c1cc(ccc1CC3)OCCOCCO2` (stereo not drawn) [Compound 7] as the compound, how does the IC50 (JAK2) read?
Its IC50 is 40 nM.

And the IC50 (FLT3-ITD)?
The IC50 was 6.4 nM.

What about the IC50 (FLT3) of the same compound?
The IC50 was 18 nM.

For `c1cc(N2CCC(N3CCCCC3)CC2)c2cc1Nc1ncc3c(n1)-c1cc(ccc1CC3)OCCOCCO2` [Compound 10], which IC50 (JAK2) is on record?
Its IC50 is 7.7 nM.

And the IC50 (FLT3-ITD)?
The IC50 was 1.3 nM.

And the IC50 (FLT3)?
Its IC50 is 6 nM.

Which results are given for `c1cc(OCCN2CCCC2)c2cc1Nc1ncc3c(n1)-c1cc(ccc1CC3)OCCOCCO2` [Compound 14]?
IC50 (JAK2): 34 nM; IC50 (FLT3-ITD): 2 nM; IC50 (FLT3): 7 nM

With `OC1CCN(c2ccc3cc2OCCOCCOc2ccc4c(c2)-c2nc(ncc2CC4)N3)CC1` [Compound 19] as the compound, how does the IC50 (JAK2) read?
Its IC50 is 20 nM.

What about the IC50 (FLT3-ITD) of the same compound?
The IC50 was 2.4 nM.

What about the IC50 (FLT3) of the same compound?
Its IC50 is 3.6 nM.

How did the IC50 (JAK2) turn out when `CN1CC=C(c2ccc3cc2OCCOCCOc2ccc4c(c2)-c2nc(ncc2CC4)N3)CC1` [Compound 23] was run?
The IC50 was 130 nM.

And the IC50 (FLT3-ITD)?
Its IC50 is 1.7 nM.

What about the IC50 (FLT3) of the same compound?
The IC50 was 4.5 nM.

Which IC50 (JAK2) does the source give for `c1cc(N2CC3CNCC3C2)c2cc1Nc1ncc3c(n1)-c1cc(ccc1CC3)OCCOCCO2` (stereo not drawn) [Compound 29] here?
Its IC50 is 11.5 nM.

What about the IC50 (FLT3-ITD) of the same compound?
The IC50 was 0.79 nM.

And the IC50 (FLT3)?
The IC50 was 3.7 nM.

How did the IC50 (JAK2) turn out when `CN(C)C1CCN(c2ccc3cc2OCCOCCOc2ccc4c(c2)-c2nc(ncc2CC4)N3)C1` (stereo not drawn) [Compound 30] was run?
The IC50 was 10 nM.

And the IC50 (FLT3-ITD)?
Its IC50 is 1 nM.

What about the IC50 (FLT3) of the same compound?
The IC50 was 3.2 nM.

Which IC50 (JAK2) does the source give for `CN1CCN(c2ccc3cc2OCCOCCOc2ccc4c(c2)-c2nc(ncc2CC4)N3)CC1(C)C` [Compound 40] here?
Its IC50 is 7.25 nM.

What about the IC50 (FLT3-ITD) of the same compound?
Its IC50 is 0.51 nM.

What about the IC50 (FLT3) of the same compound?
The IC50 was 1.9 nM.

For `c1cc(N2CC3CCC(C2)N3)c2cc1Nc1ncc3c(n1)-c1cc(ccc1CC3)OCCOCCO2` [Compound 42], which IC50 (JAK2) is on record?
Its IC50 is 6.7 nM.

And the IC50 (FLT3-ITD)?
Its IC50 is 1.1 nM.

And the IC50 (FLT3)?
Its IC50 is 3.2 nM.

How did the IC50 (JAK2) turn out when `c1cc(N2C[C@H]3C[C@@H]2CN3)c2cc1Nc1ncc3c(n1)-c1cc(ccc1CC3)OCCOCCO2` [Compound 44] was run?
The IC50 was 33.5 nM.

What about the IC50 (FLT3-ITD) of the same compound?
Its IC50 is 1.5 nM.

What about the IC50 (FLT3) of the same compound?
Its IC50 is 5.2 nM.
